Reference: patent publication US8247211B2, “Glycopeptide antibiotics” (American Cyanamid Company, priority 2001, dated 2012)
In brackets after ≈: the same amount, converted by molar mass.

Experiments:
Test in all cases: In vitro antibacterial evaluation: minimum inhibitory concentration (MIC), broth dilution method
Type in all cases: cell-based
Enterococcus sp. = settings: broth dilution, 18 hours at 35° C.
Procedure, shortened: (§1)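 Test strains, among them recent clinical isolates carrying methicillin, penicillin and/or vancomycin resistance, were inoculated at 5×10^5 CFU/mL. A broth dilution series spanning 64-0.06 μg/mL in Muller-Hinton II […] (NCCLS M7-A2) defined the MIC as the lowest growth-inhibiting concentration.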

Staphylococcus sp. = settings: strain SMITH GC 4543; broth dilution, 18 hours at 35° C.
Procedure, shortened: as §1

Streptococcus sp. = settings: broth dilution, 18 hours at 35° C.
Procedure, shortened: as §1

Escherichia coli = settings: broth dilution, 18 hours at 35° C.
[1] = Enterococcus faecalis (ATCC 29212)
[2] = Enterococcus faecalis (GC 2242)
[3] = Enterococcus faecalis (GC 2691)
[4] = Enterococcus faecalis (GC 3059)
[5] = Enterococcus faecalis (GC 4552)
[6] = Enterococcus faecalis (GC 4553)
[7] = Enterococcus faecalis (GC 4554)
[8] = Enterococcus faecalis (GC 6189)
[9] = Streptococcus agalactiae (GC 4564)
[10] = Streptococcus pneumoniae (ATCC 6301)
[11] = Streptococcus pneumoniae (GC 1894)
[12] = Streptococcus pneumoniae (GC 4565)
[13] = Streptococcus pyogenes (GC 4563)

Row | MIC Enterococcus avium (GC 4558) (Enterococcus sp.; Enterococcus avium (GC 4558)) [µg/mL] | MIC Enterococcus faecalis (ATCC 29212) (Enterococcus sp.; [1]) [µg/mL] | MIC Enterococcus faecalis (GC 2242) (Enterococcus sp.; [2]) [µg/mL] | MIC Enterococcus faecalis (GC 2691) (Enterococcus sp.; [3]) [µg/mL] | MIC Enterococcus faecalis (GC 3059) (Enterococcus sp.; [4]) [µg/mL] | MIC Enterococcus faecalis (GC 4552) (Enterococcus sp.; [5]) [µg/mL] | MIC Enterococcus faecalis (GC 4553) (Enterococcus sp.; [6]) [µg/mL] | MIC Enterococcus faecalis (GC 4554) (Enterococcus sp.; [7]) [µg/mL] | MIC Enterococcus faecalis (GC 6189) (Enterococcus sp.; [8]) [µg/mL] | MIC Enterococcus faecium (GC 2243) (Enterococcus sp.; Enterococcus faecium (GC 2243)) [µg/mL] | MIC Enterococcus faecium (GC 4556) (Enterococcus sp.; Enterococcus faecium (GC 4556)) [µg/mL] | MIC Enterococcus faecium (GC 4557) (Enterococcus sp.; Enterococcus faecium (GC 4557)) [µg/mL] | MIC Enterococcus avium (GC 4558) (Enterococcus sp.) [µg/mL] | MIC Enterococcus faecalis (ATCC 29212) (Enterococcus sp.) [µg/mL] | MIC Enterococcus faecalis (GC 2242) (Enterococcus sp.) [µg/mL] | MIC Enterococcus faecalis (GC 2691) (Enterococcus sp.) [µg/mL] | MIC Enterococcus faecalis (GC 3059) (Enterococcus sp.) [µg/mL] | MIC Enterococcus faecalis (GC 4552) (Enterococcus sp.) [µg/mL] | MIC Enterococcus faecalis (GC 4553) (Enterococcus sp.) [µg/mL] | MIC Enterococcus faecalis (GC 4554) (Enterococcus sp.) [µg/mL] | SMILES | further results
1 | 32 (≈ 28.6 µM) | 32 (≈ 28.6 µM) | 64 (≈ 57.3 µM) | 32 (≈ 28.6 µM) | 64 (≈ 57.3 µM) | 64 (≈ 57.3 µM) | 32 (≈ 28.6 µM) | 64 (≈ 57.3 µM) | 32 (≈ 28.6 µM) | 32 (≈ 28.6 µM) | 64 (≈ 57.3 µM) | 8 (≈ 7.16 µM) | 32 (≈ 28.6 µM) | 32 (≈ 28.6 µM) | 64 (≈ 57.3 µM) | 32 (≈ 28.6 µM) | 64 (≈ 57.3 µM) | 64 (≈ 57.3 µM) | 32 (≈ 28.6 µM) | 64 (≈ 57.3 µM) | CC(c1ccccc1)C1NC(=O)CNC(=O)C(CO)NC(=O)C(C(O)C2CNC(=N)N2C2OC(CO)C(O)C(O)C2O)NC(=O)C(C(O)C2CNC(=N)N2)NC(=O)C(Cc2ccc3oc(-c4cccc([N+](=O)[O-])c4)nc3c2)NC1=O (stereo not drawn) [Example 26, Cyclo[3-[2-(3-nitrophenyl)-1,3-benzoxazol-5-yl)alanyl-3-(2-iminoimidazolidin-4-yl)seryl-3-(3-hexopyranosyl-2-iminoimidazolidin-4-yl)serylserylglycyl-β-methylphenylalanyl]] | MIC Enterococcus faecalis (GC 6189) (Enterococcus sp.): 32 µg/mL (≈ 28.6 µM); MIC Enterococcus faecium (GC 2243) (Enterococcus sp.): 32 µg/mL (≈ 28.6 µM); MIC Enterococcus faecium (GC 4556) (Enterococcus sp.): 64 µg/mL (≈ 57.3 µM); MIC Enterococcus faecium (GC 4557) (Enterococcus sp.): 8 µg/mL (≈ 7.16 µM); MIC Staphylococcus aureus-SMITH (GC 4543) (Staphylococcus sp.): 16 µg/mL (≈ 14.3 µM); MIC Streptococcus agalactiae (GC 4564) (Streptococcus sp.; [9]): 16 µg/mL (≈ 14.3 µM); MIC Streptococcus pneumoniae (ATCC 6301) (Streptococcus sp.; [10]): 32 µg/mL (≈ 28.6 µM); MIC Streptococcus pneumoniae (GC 1894) (Streptococcus sp.; [11]): 16 µg/mL (≈ 14.3 µM); MIC Streptococcus pneumoniae (GC 4565) (Streptococcus sp.; [12]): 32 µg/mL (≈ 28.6 µM); MIC Streptococcus pyogenes (GC 4563) (Streptococcus sp.; [13]): 8 µg/mL (≈ 7.16 µM); MIC Streptococcus agalactiae (GC 4564) (Streptococcus sp.): 16 µg/mL (≈ 14.3 µM); MIC Streptococcus pneumoniae (ATCC 6301) (Streptococcus sp.): 32 µg/mL (≈ 28.6 µM); MIC Streptococcus pneumoniae (GC 1894) (Streptococcus sp.): 16 µg/mL (≈ 14.3 µM); MIC Streptococcus pneumoniae (GC 4565) (Streptococcus sp.): 32 µg/mL (≈ 28.6 µM); MIC Streptococcus pyogenes (GC 4563) (Streptococcus sp.): 8 µg/mL (≈ 7.16 µM); MIC Escherichia coli (ATCC 25922) (Escherichia coli): 64 µg/mL (≈ 57.3 µM); MIC Escherichia coli (GC 4559) (Escherichia coli): 64 µg/mL (≈ 57.3 µM); MIC Escherichia coli (GC 4560) (Escherichia coli): 16 µg/mL (≈ 14.3 µM)
2 | 16 (≈ 13.9 µM) | 32 (≈ 27.8 µM) | 32 (≈ 27.8 µM) | 32 (≈ 27.8 µM) | 32 (≈ 27.8 µM) | 64 (≈ 55.6 µM) | 16 (≈ 13.9 µM) | 32 (≈ 27.8 µM) | 32 (≈ 27.8 µM) | 32 (≈ 27.8 µM) | 64 (≈ 55.6 µM) | 8 (≈ 6.95 µM) | 16 (≈ 13.9 µM) | 32 (≈ 27.8 µM) | 32 (≈ 27.8 µM) | 32 (≈ 27.8 µM) | 32 (≈ 27.8 µM) | 64 (≈ 55.6 µM) | 16 (≈ 13.9 µM) | 32 (≈ 27.8 µM) | CC(c1ccccc1)C1NC(=O)CNC(=O)C(CO)NC(=O)C(C(O)C2CNC(=N)N2C2OC(CO)C(O)C(O)C2O)NC(=O)C(C(O)C2CNC(=N)N2)NC(=O)C(Cc2ccc3oc(-c4ccc(Br)cc4)nc3c2)NC1=O (stereo not drawn) [Example 27, Cyclo[3-[2-(4-bromaphenyl)-1,3-benzoxazol-5-yl]alanyl-3-(2-iminoimidazolidin-4-yl)seryl-3-(3-hexopyranosyl-2-iminoimidazolidin-4-yl)serylserylglycyl-β-methylphenylalanyl]] | MIC Enterococcus faecalis (GC 6189) (Enterococcus sp.): 32 µg/mL (≈ 27.8 µM); MIC Enterococcus faecium (GC 2243) (Enterococcus sp.): 32 µg/mL (≈ 27.8 µM); MIC Enterococcus faecium (GC 4556) (Enterococcus sp.): 64 µg/mL (≈ 55.6 µM); MIC Enterococcus faecium (GC 4557) (Enterococcus sp.): 8 µg/mL (≈ 6.95 µM); MIC Staphylococcus aureus-SMITH (GC 4543) (Staphylococcus sp.): 8 µg/mL (≈ 6.95 µM); MIC Streptococcus agalactiae (GC 4564) (Streptococcus sp.; [9]): 32 µg/mL (≈ 27.8 µM); MIC Streptococcus pneumoniae (ATCC 6301) (Streptococcus sp.; [10]): 16 µg/mL (≈ 13.9 µM); MIC Streptococcus pneumoniae (GC 1894) (Streptococcus sp.; [11]): 32 µg/mL (≈ 27.8 µM); MIC Streptococcus pneumoniae (GC 4565) (Streptococcus sp.; [12]): 16 µg/mL (≈ 13.9 µM); MIC Streptococcus pyogenes (GC 4563) (Streptococcus sp.; [13]): 8 µg/mL (≈ 6.95 µM); MIC Streptococcus agalactiae (GC 4564) (Streptococcus sp.): 32 µg/mL (≈ 27.8 µM); MIC Streptococcus pneumoniae (ATCC 6301) (Streptococcus sp.): 16 µg/mL (≈ 13.9 µM); MIC Streptococcus pneumoniae (GC 1894) (Streptococcus sp.): 32 µg/mL (≈ 27.8 µM); MIC Streptococcus pneumoniae (GC 4565) (Streptococcus sp.): 16 µg/mL (≈ 13.9 µM); MIC Streptococcus pyogenes (GC 4563) (Streptococcus sp.): 8 µg/mL (≈ 6.95 µM); MIC Escherichia coli (ATCC 25922) (Escherichia coli): 32 µg/mL (≈ 27.8 µM); MIC Escherichia coli (GC 4559) (Escherichia coli): 32 µg/mL (≈ 27.8 µM); MIC Escherichia coli (GC 4560) (Escherichia coli): 8 µg/mL (≈ 6.95 µM)
3 | 16 (≈ 14.3 µM) | 32 (≈ 28.7 µM) | 32 (≈ 28.7 µM) | 32 (≈ 28.7 µM) | 64 (≈ 57.4 µM) | 64 (≈ 57.4 µM) | 16 (≈ 14.3 µM) | 32 (≈ 28.7 µM) | 32 (≈ 28.7 µM) | 16 (≈ 14.3 µM) | 64 (≈ 57.4 µM) | 8 (≈ 7.17 µM) | 16 (≈ 14.3 µM) | 32 (≈ 28.7 µM) | 32 (≈ 28.7 µM) | 32 (≈ 28.7 µM) | 64 (≈ 57.4 µM) | 64 (≈ 57.4 µM) | 16 (≈ 14.3 µM) | 32 (≈ 28.7 µM) | CC(c1ccccc1)C1NC(=O)CNC(=O)C(CO)NC(=O)C(C(O)C2CNC(=N)N2C2OC(CO)C(O)C(O)C2O)NC(=O)C(C(O)C2CNC(=N)N2)NC(=O)C(Cc2ccc3oc(-c4ccc(N(C)C)cc4)nc3c2)NC1=O (stereo not drawn) [Example 29, Cyclo[3-[2-[4-(dimethylamino)phenyl]-1,3-benzoxazol-5-yl]alanyl-3-(2-iminoimidazolidin-4-yl)-seryl-3-(3-hexopyranosyl-2-iminoimidazolidin-4-yl)serylserylglycyl-β-methylphenyl-alanyl]] | MIC Enterococcus faecalis (GC 6189) (Enterococcus sp.): 32 µg/mL (≈ 28.7 µM); MIC Enterococcus faecium (GC 2243) (Enterococcus sp.): 16 µg/mL (≈ 14.3 µM); MIC Enterococcus faecium (GC 4556) (Enterococcus sp.): 64 µg/mL (≈ 57.4 µM); MIC Enterococcus faecium (GC 4557) (Enterococcus sp.): 8 µg/mL (≈ 7.17 µM); MIC Staphylococcus aureus-SMITH (GC 4543) (Staphylococcus sp.): 8 µg/mL (≈ 7.17 µM); MIC Streptococcus agalactiae (GC 4564) (Streptococcus sp.; [9]): 32 µg/mL (≈ 28.7 µM); MIC Streptococcus pneumoniae (ATCC 6301) (Streptococcus sp.; [10]): 32 µg/mL (≈ 28.7 µM); MIC Streptococcus pneumoniae (GC 1894) (Streptococcus sp.; [11]): 32 µg/mL (≈ 28.7 µM); MIC Streptococcus pneumoniae (GC 4565) (Streptococcus sp.; [12]): 32 µg/mL (≈ 28.7 µM); MIC Streptococcus pyogenes (GC 4563) (Streptococcus sp.; [13]): 16 µg/mL (≈ 14.3 µM); MIC Streptococcus agalactiae (GC 4564) (Streptococcus sp.): 32 µg/mL (≈ 28.7 µM); MIC Streptococcus pneumoniae (ATCC 6301) (Streptococcus sp.): 32 µg/mL (≈ 28.7 µM); MIC Streptococcus pneumoniae (GC 1894) (Streptococcus sp.): 32 µg/mL (≈ 28.7 µM); MIC Streptococcus pneumoniae (GC 4565) (Streptococcus sp.): 32 µg/mL (≈ 28.7 µM); MIC Streptococcus pyogenes (GC 4563) (Streptococcus sp.): 16 µg/mL (≈ 14.3 µM); MIC Escherichia coli (ATCC 25922) (Escherichia coli): 16 µg/mL (≈ 14.3 µM); MIC Escherichia coli (GC 4559) (Escherichia coli): 16 µg/mL (≈ 14.3 µM); MIC Escherichia coli (GC 4560) (Escherichia coli): 4 µg/mL (≈ 3.59 µM)
